Ki data for 18 compounds are collected here from patent publication US8350028B2, “2-aminoquinolines” (Hofmann-La Roche Inc., priority 2008, dated 2013).

Each structure is given as a SMILES string.

As a reminder, the Ki is the dissociation constant of the complex between target and ligand, obtained from inhibition or displacement.

The test deals with T1, recombinant human 5-HT5A receptor (Homo sapiens, UniProt P47898).
T1 construct: expressed in transfected cells; host or cells: HEK-EBNA (Human Embryonic Kidney-EBNA) cells, transient cDNA expression; membranes
T1 sequence (P47898 whole entry): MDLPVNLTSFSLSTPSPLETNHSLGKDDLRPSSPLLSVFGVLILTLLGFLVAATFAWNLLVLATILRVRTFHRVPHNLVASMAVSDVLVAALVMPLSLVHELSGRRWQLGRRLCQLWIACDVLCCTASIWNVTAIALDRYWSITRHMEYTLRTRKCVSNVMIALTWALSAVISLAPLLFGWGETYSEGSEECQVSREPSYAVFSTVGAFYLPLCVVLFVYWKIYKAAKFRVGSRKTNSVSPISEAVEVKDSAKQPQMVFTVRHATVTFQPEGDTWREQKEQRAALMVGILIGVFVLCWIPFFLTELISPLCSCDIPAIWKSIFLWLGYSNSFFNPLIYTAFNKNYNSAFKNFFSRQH
The experiment in a line: [3H]LSD radioligand binding assay. The conditions noted are these: [3H]LSD (approximately 1 nM); membranes from HEK-EBNA cells transiently expressing 5-HT5A receptors; Ki calculated from IC50 using the Cheng-Prussoff equation. Here is the method:
A [^3H]LSD radioligand binding assay was used to determine the affinity of the compounds for the recombinant human 5-HT5A receptor, in membranes from transiently (cDNA) expressed 5-HT5A receptors in Human Embryonic Kidney-EBNA (HEK-EBNA) cells. Assay buffer consisted of Tris (50 mM) buffer containing 1 mM EGTA, 10 mM MgCl2 (pH 7.4) and 10 μM pargyline. The binding assay was carried out in 96-well-plates in the presence of [^3H]LSD (approximately 1 nM), approximately 2 μg/well of membrane protein, and 0.5 mg of Ysi-poly-1-lysine SPA beads in a final volume of 200 μl of buffer. Non-specific binding was defined using methiothepin 2 μM. Compounds were tested at 10 concentrations. All assays were conducted in duplicate and repeated at least two times. Assay plates were incubated for 120 min at room temperature before centrifugation. Bound ligand was determined using a Packard Topcount scintillation counter. IC50 values were calculated using a non-linear curve fitting program and Ki values calculated using the Cheng-Prussoff equation.
Regarding `COCCN1CCC(NC(=O)Nc2ccc3nc(NCc4ccccc4OC)ccc3c2)CC1` [Example 23, 1-[2-(2-Methoxy-benzylamino)-quinolin-6-yl]-3-[1-(2-methoxy-ethyl)-piperidin-4-yl]-urea], the Ki was 6.4 nM.
Then `COc1ccccc1CNc1ccc2cc(NC(=O)NC3CCN(CCF)CC3)ccc2n1` [Example 24, 1-[1-(2-Fluoro-ethyl)-piperidin-4-yl]-3-[2-(2-methoxy-benzylamino)-quinolin-6-yl]-urea], with 8.4 nM; and `COc1ccccc1CNc1ccc2cc(NC(=O)CN3CCN(C)CC3)ccc2n1` [Example 33, N-[2-(2-Methoxy-benzylamino)-quinolin-6-yl]-2-(4-methyl-piperazin-1-yl)-acetamide], with 33 nM.
For the compound `COCC(=O)N1CCC(NC(=O)Nc2ccc3nc(NCc4ccccc4OC)ccc3c2)CC1` [Example 31, 1-[1-(2-Methoxy-acetyl)-piperidin-4-yl]-3-[2-(2-methoxy-benzylamino)-quinolin-6-yl]-urea], the Ki is 20.4 nM.
In the case of `COc1ccccc1CNc1ccc2cc(NC(=O)NC3CCN(C(C)C)CC3)ccc2n1` [Example 25, 1-(1-Isopropyl-piperidin-4-yl)-3-[2-(2-methoxy-benzylamino)-quinolin-6-yl]-urea], the Ki was 6.7 nM.
For `COc1ccccc1CNc1ccc2cc(NC(=O)NC3CCN(C)CC3)ccc2n1` [Example 17, 1-[2-(2-Methoxy-benzylamino)-quinolin-6-yl]-3-(1-methyl-piperidin-4-yl)-urea] the value was 2.7 nM.
For `COc1ccccc1CNc1ccc2cc(NC(=O)NC3CCN(C(=O)CF)CC3)ccc2n1` [Example 27, 1-[1-(2-Fluoro-acetyl)-piperidin-4-yl]-3-[2-(2-methoxy-benzylamino)-quinolin-6-yl]-urea] the value was 15.7 nM; for `COc1ccccc1CNc1ccc2cc(NC(=O)NC(C)C)ccc2n1` [Example 14, 1-Isopropyl-3-[2-(2-methoxy-benzylamino)-quinolin-6-yl]-urea], 3.3 nM.
For `COc1ccccc1CNc1ccc2cc(NC(=O)NC3CCN(C4CC4)CC3)ccc2n1` [Example 28, 1-(1-Cyclopropyl-piperidin-4-yl)-3-[2-(2-methoxy-benzylamino)-quinolin-6-yl]-urea] the value was 6.8 nM.
Turning to `Cc1ccc(CNc2ccc3cc(NC(=O)NC(C)C)ccc3n2)o1` [Example 21, 1-Isopropyl-3-{2-[(5-methyl-furan-2-ylmethyl)-amino]-quinolin-6-yl}-urea], the Ki is 27.4 nM.
Turning to `Cc1ccc(CNc2ccc3cc(NC(=O)NC4CCN(C)CC4)ccc3n2)o1` [Example 29, 1-{2-[(5-Methyl-furan-2-ylmethyl)-amino]-quinolin-6-yl}-3-(1-methyl-piperidin-4-yl)-urea], the inhibition constant (Ki) is 12.5 nM.
As to `COc1ccccc1CNc1ccc2cc(NC(=O)NC3CCN(C(=O)CC(F)(F)F)CC3)ccc2n1` [Example 26], the Ki is 36.2 nM.
For `COc1ccccc1CNc1ccc2cc(NS(=O)(=O)N3C[C@@H]4C[C@H]3CO4)ccc2n1` [Example 19, (1S,4S)-2-Oxa-5-aza-bicyclo[2.2.1]heptane-5-sulfonic acid [2-(2-methoxy-benzylamino)-quinolin-6-yl]-amide] the value was 8 nM; for `COc1ccccc1CNc1ccc2cc(NS(=O)(=O)N(C)C)ccc2n1` [Example 10, N′-{2-[(2-methoxybenzyl)amino]quinolin-6-yl}-N,N-dimethylsulfamide], 17.1 nM.
On to `COc1ccccc1CNc1ccc2cc(NC(=O)NC3CCN(CCSC)CC3)ccc2n1` [Example 30, 1-[2-(2-Methoxy-benzylamino)-quinolin-6-yl]-3-[1-(2-methylsulfanyl-ethyl)-piperidin-4-yl]-urea], for which the Ki was 5.9 nM.
Then `COc1ccc(CNc2ccc3cc(NC(=O)NC(C)C)ccc3n2)cc1` [Example 18, 1-Isopropyl-3-[2-(4-methoxy-benzylamino)-quinolin-6-yl]-urea], with 49.5 nM; and `COc1ccccc1CNc1ccc2cc(NS(=O)(=O)NC3CC3)ccc2n1` [Example 20, N-cyclopropyl-N′-{2-[(2-methoxybenzyl)amino]quinolin-6-yl}sulfamide], with 26.8 nM; and `COc1ccccc1CNc1ccc2cc(NC(=O)C3CC3)ccc2n1` [Example 32, Cyclopropanecarboxylic acid [2-(2-methoxy-benzylamino)-quinolin-6-yl]-amide], with 6.5 nM.
